Reference: patent US6656955B2, “Pharmaceutical composition having enhanced antitumor activity and/or reduced side effects, containing an antitumor agent and an hydroximic acid derivative” (priority 1997, dated 2003)

How the values were obtained:
[1] = test system: Sp-2 (mouse myeloma, suspension) cells; test: Surviving tumor cells in cell culture, trypan blue counting; assay type: cell-based; settings: Sp-2 cells, compound L 40 microgram/ml
Method: Experiments with cell culture. Sp-2 (mouse myeloma, suspension) cells were plated on DMEM (Dubelso modified Eagle medium) in the presence of 10% FCS (fetal calf serum). Cells were plated on 96 hole plate with a starting cell number of 10^4/250 μl.
48 hours after treatment, i.e., addition of the above listed compounds, cells in the holes were counted in a method of staining them with 10 microliter of tripaneblue following suspension. Counting was done in B{overscore (u)}rker chamber.
In this case, one portion of cells were plated without the presence of drug, one portion of cells were plated in the presence of 13 microgram/ml fluoroacil, another portion in the presence of 13 microgram/ml fluoroacil+40 microgram/ml compound “L”. Survival rate was examined […] after treatment.

P-388 leukemia cells = test: Survival of mice inoculated with P-388 leukemia; assay type: in vivo, BDF1 mice; settings: for Long term Percent survival / Long term Survivors/Total: day 45
Method: (§1) In vivo experiments with mice. Single or repeated treatments started on day 1 following transplantation of P-388 or S-180 tumor The therapeutic effectiveness was evaluated on the basis of survival time and tumor volume. The experiments were terminated after 45 days. Long-term survival of mice were not followed beyond 45 days, but the end point was on day 46 following tumor transplantation. The comparative antitumor effect of various treatment groups on the median survival time in days for treated versus control groups was expressed as T/C.
Treatments started 1 day after the i.p. tumor transplantation.

S-180 sarcoma = test: Tumor growth inhibition, S-180 solid tumor in mice; assay type: in vivo; settings: single (FIG. 1) or repeated injections (FIG. 2)
Method: as §1
In the case of S-180 solid tumor the tumor growth inhibitory effect of compounds was controlled 3 times for a week using digital caliper. Tumor volume was calculated using the following formula: […]
where “a” and “b” are the shortest and the longest diameter, respectively of a given tumor (Tomayko M. M. and Reynolds C. P.: Determination of subcutaneous tumor size in athymic/nude/mice. Cancer Chemother. Pharmacol, 24, p. 148,1989). Mean values (X) and standard deviations (S.D.) were calculated. The statistically significant difference (p) was determined by Student' t test, where appropriate.

Wistar rats [2] = test: Cardiac function by ECG in cisplatin-treated rats; assay type: in vivo, rat; settings: cisplatin 50 mg/kg daily, compound L 40 mg/kg daily
Method: (§2) In vivo experiments with rats. […] The animals were healthy (without any tumor inoculation) at the beginning of the experiment, and the dose of the antitumor compound was provocatively/unusually high which by itself would cause tissue damage with high probability. […] During treatment, cardiac function of animals was followed by ECG, and after two weeks of treatment enzymatic activity in the blood of animals was determined.
Cardiac function was monitored by AT-6 ECG on all four limbs. QRS, RR, PR and TQ distances and J point depressions were determined.

Wistar rats [3] = test: Tissue damage: intracellular enzyme release into serum of cisplatin-treated rats; assay type: in vivo, rat; settings: after two weeks, cisplatin 50 mg/kg daily, compound L 40 mg/kg daily
Method: as §2
Tissue damage was evaluated by measuring intracellular release of enzymes. Enzymatic activity was determined by the method of H. U. Bergmeyer. (Methods in Enzymatic Analysis, 2nd edition, Academic Press (1974)/. The following enzymes were measured:
GOT=glutamate-oxalacetate-transaminase,
GPT=glutamate-piruvate-transaminase,
LDH=lactate dehydrogenase,
LipDH=lipoamide-dehydrogenase,
Enzymatic activity is given in mUnit/m1 serum.

Wistar rats [4] = test: One month survival after two week treatment of rats; assay type: in vivo; settings: cisplatin 50 mg/kg daily, compound L 40 mg/kg daily
Method: as §2
It was investigated how many percent of animals were still alive following a two week treatment detailed above.

BDF1 male mice = test: Acute toxicity (survival) in normal mice; assay type: in vivo; settings: for Survival % / Survivors/Total: 25 days observation
Method: In vivo experiments with mice. […] [c.f. Oncology Report (REP/O.O.I./1988/01)]. First generation hybrid BDF1 (C57B1 female×DBA/2 male) adult male mice, weighing 22-24 g, specified pathogen free (SPF) were used for these experiments. The animals were kept in macrolon cages at 22-24° C. (40-50% humidity), with a lighting regimen of 12/12 h light/dark.
The observation period was terminated after 25 days. Of compound “L” doses, the dose of 750 mg/kg body weight, i.p. was lethal (Table 4).

[5] = 48 hours, cisplatin 0.35 microgram/ml
[6] = group 10: CisPt 10 mg/kg i.p., 1 qd
[7] = group 13: CisPt 3 mg/kg i.p., 5 qd
[8] = 40 hours, fluoroacil 13 microgram/ml

N.N.[Cl][Pt][Cl] [Cisplatin, cis-diammine-dichloroplatinum]
Surviving cell (%) [1, 5]: 12 ± 4% | T/C % (P-388 leukemia cells; [6]): 147.0% | Long term Percent survival (P-388 leukemia cells; [6]): 29% | Long term Survivors/Total (P-388 leukemia cells; [6]): 2/7 | Mean Survival (days) (P-388 leukemia cells; group 10: CisPt 10 mg/kg i.p., 1 qd, non-long-term survivors (5 mice)): 16.6 ± 4.6 day⁻¹ | T/C % (P-388 leukemia cells; [7]): 257.0% | Mean Survival (days) (P-388 leukemia cells; group 13: CisPt 3 mg/kg i.p., 5 qd, 4 mice): 29.0 ± 6.1 day⁻¹ | Long term Percent survival (P-388 leukemia cells; [7]): 43% | Long term Survivors/Total (P-388 leukemia cells; [7]): 3/7 | Tumor growth inhibitory effect (tumor growth curves, mean tumor volumes) (S-180 sarcoma): significant inhibitory effect | J point depression (Wistar rats [2]): 2.1 ± 0.3 mm | QRS (Wistar rats [2]): 102 ms | QRS intensity (Wistar rats [2]): fluctuating | Enzymatic activity CK (creatine-kinase) (Wistar rats [3]): 9776 mU/ml | Enzymatic activity CS (citrate-synthase) (Wistar rats [3]): 22 mU/ml | Enzymatic activity GOT (glutamate-oxalacetate-transaminase) (Wistar rats [3]): 273 mU/ml | Enzymatic activity GPT (glutamate-piruvate-transaminase) (Wistar rats [3]): 87 mU/ml | Enzymatic activity LDH (lactate dehydrogenase) (Wistar rats [3]): 5136 mU/ml | Enzymatic activity LipDH (lipoamide-dehydrogenase) (Wistar rats [3]): 69 mU/ml | One month survival (%) (Wistar rats [4]): 25%

O=c1[nH]cc(F)c(=O)[nH]1 [Fluoroacil, 5-fluoro-2,4(1H,3H)pyrimidinedione]
Surviving cell (%) [1, 8]: 13 ± 3%

Cl.Cl.NC(=NOCC(O)CN1CCCCC1)c1cccnc1 (stereo not drawn) [compound “L”, O-(3-piperidino-2-hydroxyl-1-propyl)niconitic acid amidoxime dihydrochloride]
Toxicity evaluated on the basis of survival (BDF1 male mice; compound L 750 mg/kg body weight, i.p.): lethal | Survival % (BDF1 male mice; group 1: 200 mg/kg i.p., 1 qd): 100% | Survivors/Total (BDF1 male mice; group 1: 200 mg/kg i.p., 1 qd): 7/7 | Survival % (BDF1 male mice; group 2: 750 mg/kg i.p., 1 qd): 0% | Survivors/Total (BDF1 male mice; group 2: 750 mg/kg i.p., 1 qd): 0/7 | Survival % (BDF1 male mice; group 3: 2000 mg/kg p.o., 1 qd): 100% | Survivors/Total (BDF1 male mice; group 3: 2000 mg/kg p.o., 1 qd): 7/7 | Survival % (BDF1 male mice; group 4: 100 mg/kg i.p., 5 qd): 100% | Survivors/Total (BDF1 male mice; group 4: 100 mg/kg i.p., 5 qd): 7/7 | Toxicity evaluated on the basis of survival (BDF1 male mice; other single compound L treatments (Table 4)): no effect on the survival | Surviving cell (%) [1, 8]: 51 ± 8% | Surviving cell (%) [1, 5]: 51 ± 8%
